Measured values reported in patent publication US20250129101A1, “Compound, Pharmaceutical Composition Comprising the Same and Method for Treating Cancer Using the Same” (NATIONAL TSING HUA UNIVERSITY, priority 2023, published 2025).

What was measured:
KIF2C = target: T1, KIF2C (Homo sapiens, UniProt Q99661); assay: In vitro validation: KIF2C kinesin activity, malachite green-based phosphate colorimetric assay; format: biochemical; conditions: concentration that inhibits 50% of KIF2C activity
T1 construct: KIF2C (216-598 a.a.); 6xHis (C); made in house; host or cells: E. coli BL21 (DE3), pET-28a
Description: (§1) The in vitro validation was performed by measuring KIF2C kinesin activity using malachite green-based phosphate colorimetric assay (BioVision). […] The microtubules from porcine brain tubulin (Cytoskeleton) or purified from HEK293 cells in Free-style medium (293Fs) were dissolved in the BRB80 buffer (80 mM PIPES pH 6.8, 1 mM EGTA, 1 mM MgCl2, 1 mM GTP, 1 mM DTT, and 10% DMSO) at 37° C. for 2 hr. Phosphates released from kinesin-mediated ATP hydrolysis was measured by adding 30 μL of the phosphate colorimetric reagent (BioVision), incubated for 10 min, and then measured with absorbance at 650 nm. […] The cell validation was performed by measuring cytotoxicity in MDA-MB-231 cells. The cells were cultured in a 96-well plate at a confluence of 2000 cells/well with indicates compounds for specific days. When the time was up, the culture medium in the plate was aspirated and replaced with a prepared CellTiter-Glo reagent (Promega)/DMEM mixture (1:1 mix of CellTiter-Glo reagent and serum-supplemented DMEM). After incubation for 10 min, the luminescence was measured with an ELISA plate reader to determine the cell viability.
In vitro kinesin activity was measured using malachite green-based phosphate colorimetric assay (BioVision). […] The microtubules from porcine brain tubulin (Cytoskeleton) or purified from HEK293 cells in Free-style medium (293Fs) were dissolved in the BRB80 buffer (80 mM PIPES pH 6.8, 1 mM EGTA, 1 mM MgCl2, 1 mM GTP, 1 mM DTT, and 10% DMSO) at 37° C. for 2 hr. Phosphates released from kinesin-mediated ATP hydrolysis was measured by adding 30 μL of the phosphate colorimetric reagent (BioVision), incubated for 10 min, and then measured with absorbance at 650 nm.
Constructs of sN+M regions of KIF2C (216-598 a.a.), KIF2A (181-562 a.a.) and KIF2B (171-553 a.a.) with C-terminal 6×His tag were subcloned into pET-28a vector and expressed in BL21 (DE3) E. coli cells (Novartis) cultured in Luria-Bertani medium supplemented with 50 ug/mL kanamycin at 37° C. After induction with 0.8 mM IPTG for 18 hr at 20° C., the cells were pelleted by centrifugation at 6000 rpm for 30 min at 10° C. The collected pellets were resuspended in 30 mL of buffer A (20 mM Tris-HCl pH 7.5, 500 mM NaCl, 10 mM imidazole, 1% CHAPS, and 1 mM PMSF) and next subjected to a high-pressure homogenizer (EmulsiFlex-C3) for cell lysis. After removing the cell debris by centrifugation at 13000 rpm for 30 min at 10° C., the recombinant Kinesin-13 in the supernatant was purified using nickel affinity chromatography. Firstly, the supernatant was applied to the Ni-NTA column (GE Healthcare) pre-equilibrated with buffer A. Secondly, the column was washed with 10× column volumes of buffer A to remove the unwanted proteins. The washed column was then eluted with 10× column volumes of buffer containing increasing concentrations of imidazole (40, 100, 300, 1000 mM), and the majority of the recombinant Kinesin-13 protein was eventually obtained in a fraction of 300 mM imidazole. The fractions containing the recombinant Kinesin-13 were subsequently concentrated in the buffer B (20 mM Tris-HCl pH 7.5, 10 mM imidazole, 50 mM NaCl, 2 mM DTT) using an Amicon® Ultra filter (Millipore) and subjected to cation exchange column (Capto S, GE Healthcare) for further purification. The recombinant Kinesin-13 was then eluted in elution buffer (20 mM Tris-HCl pH 7.5 and 2 mM DTT) containing 400 mM of NaCl and stored at −80° C. for long-term storage.

MDA-MB-231 cells = assay: Cell validation: cytotoxicity in MDA-MB-231 cells (CellTiter-Glo); format: cell-based; conditions: cytotoxicity in MDA-MB-231 cells; for IC50: Homo sapiens
Description: as §1
The cancer cells were cultured in a 96-well plate at a confluence of 1000-2000 cells/well with indicated drugs for specific days. When the time was up, the culture medium in the plate was aspirated and replaced with a prepared CellTiter-Glo reagent/DMEM mixture (1:1 mix of CellTiter-Glo reagent and serum-supplemented DMEM). After incubation for 10 min, the luminescence (proportional to the number of living cells) was measured with an ELISA plate reader to determine the cell viability.

T1 sequence (Q99661 216-598): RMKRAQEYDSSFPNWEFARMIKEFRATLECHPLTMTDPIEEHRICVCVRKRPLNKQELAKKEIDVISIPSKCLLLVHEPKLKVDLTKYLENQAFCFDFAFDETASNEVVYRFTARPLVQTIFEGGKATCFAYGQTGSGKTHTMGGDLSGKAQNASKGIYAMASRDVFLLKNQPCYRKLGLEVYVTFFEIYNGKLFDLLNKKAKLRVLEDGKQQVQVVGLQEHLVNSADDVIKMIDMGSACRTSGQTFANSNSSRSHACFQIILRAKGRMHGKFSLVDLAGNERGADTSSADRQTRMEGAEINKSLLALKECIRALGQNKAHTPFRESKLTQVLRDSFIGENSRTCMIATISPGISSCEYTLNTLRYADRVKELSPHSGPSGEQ

EC50 (KIF2C) [µM]	SMILES	Cell validation (IC50) (MDA-MB-231 cells)	IC50 (MDA-MB-231 cells) [µM]
50 to 100	CC1=C(C(=O)OC(C)C)C(c2ccc(-n3ccnc3)cc2)n2c(s/c(=C\c3ccc(OCC(=O)N4CCN(C)CC4)cc3)c2=O)=N1 (stereo not shown) [21S0 (46), isopropyl (Z)-5-(4-(1H-imidazol-1-yl)phenyl)-7-methyl-2-(4-(2-(4-methylpiperazin-1-yl)-2-oxoethoxy)benzylidene)-3-oxo-2,3-dihydro-5H-thiazolo[3,2-a]pyrimidine-6-carboxylate]	+ +	
> 100	CC1=C(C(=O)OC(C)C)C(c2ccc(Cl)cc2)n2c(s/c(=C\c3ccc(OCC(=O)N4CCN(C5CCCCC5)CC4)cc3)c2=O)=N1 (stereo not shown) [22S0 (17), propan-2-yl (2Z)-5-(4-chlorophenyl)-2-(4-(2-(4-cyclohexylpiperazin-1-yl)-2-oxoethoxy)benzylidene)-7-methyl-3-oxo-2,3-dihydro-5H-[1,3]thiazolo[3,2-a]pyrimidine-6-carboxylate]		> 50
< 50	CC1=C(C(=O)OC(C)C)C(c2ccc(Cl)cc2)n2c(s/c(=C\c3ccc(OCC(=O)N4CCC(N(C)C)CC4)cc3)c2=O)=N1 (stereo not shown) [23S0 (18), propan-2-yl (2Z)-5-(4-chlorophenyl)-2-(4-(2-(4-(dimethylamino)piperidin-1-yl)-2-oxoethoxy)benzylidene)-7-methyl-3-oxo-2,3-dihydro-5H-[1,3]thiazolo[3,2-a]pyrimidine-6-carboxylate]	+ + +	
< 50	CC1=C(C(=O)OC(C)C)C(c2ccc(Cl)cc2)n2c(s/c(=C\c3ccc(OCC(=O)N4CCC(N(C)C)CC4)cc3)c2=O)=N1.O=C(O)/C=C\C(=O)O (stereo not shown) [23S9 (134), isopropyl (Z)-5-(4-chlorophenyl)-2-(4-(2-(4-(dimethylamino)piperidin-1-yl)-2-oxoethoxy)benzylidene)-7-methyl-3-oxo-2,3-dihydro-5H-thiazolo[3,2-a]pyrimidine-6-carboxylate maleate]	+ + +	
< 50	CC1=C(C(=O)OC(C)C)C(c2ccc(Cl)cc2)n2c(s/c(=C\c3ccc(OCC(=O)N4CCC(N5CCN(C)CC5)CC4)cc3)c2=O)=N1 (stereo not shown) [24S0 (19), isopropyl (Z)-5-(4-chlorophenyl)-7-methyl-2-(4-(2-(4-(4-methylpiperazin-1-yl)piperidin-1-yl)-2-oxoethoxy)benzylidene)-3-oxo-2,3-dihydro-5H-thiazolo[3,2-a]pyrimidine-6-carboxylate]	+ + + +	
> 100	CC1=C(C(=O)OC(C)(C)C)C(c2ccc(Cl)cc2)n2c(s/c(=C\c3ccc(OCC(=O)N4CCN(C)CC4)cc3)c2=O)=N1 (stereo not shown) [25S0 (95)]	+ +	
> 100	CCC1=C(C(=O)OC(C)C)C(c2ccc(Cl)cc2)n2c(s/c(=C\c3ccc(OCC(=O)N4CCN(C)CC4)cc3)c2=O)=N1 (stereo not shown) [28S0 (105), isopropyl (Z)-5-(4-chlorophenyl)-7-ethyl-2-(4-(2-(4-methylpiperazin-1-yl)-2-oxoethoxy)benzylidene)-3-oxo-2,3-dihydro-5H-thiazolo[3,2-a]pyrimidine-6-carboxylate]		20 to 50
50 to 100	CC1=C(C(=O)OCc2ccccc2)C(c2ccc(Cl)cc2)n2c(s/c(=C\c3ccc(OCC(=O)N4CCN(C)CC4)cc3)c2=O)=N1 (stereo not shown) [29S0 (97), benzyl (Z)-5-(4-chlorophenyl)-7-methyl-2-(4-(2-(4-methylpiperazin-1-yl)-2-oxoethoxy)benzylidene)-3-oxo-2,3-dihydro-5H-thiazolo[3,2-a]pyrimidine-6-carboxylate]	+ + +	
> 100	CC1=C(C(=O)OC(C)C)C(c2ccc(Cl)cc2)n2c(s/c(=C\c3ccc(OCC(=O)N4CCC(O)CC4)cc3)c2=O)=N1 (stereo not shown) [31S0 (20), isopropyl (Z)-5-(4-chlorophenyl)-2-(4-(2-(4-hydroxypiperidin-1-yl)-2-oxoethoxy)benzylidene)-7-methyl-3-oxo-2,3-dihydro-5H-thiazolo[3,2-a]pyrimidine-6-carboxylate]		> 50
< 20	CC1=C(C(=O)OC(C)C)C(c2ccc(Cl)cc2)n2c(s/c(=C\c3ccc(OCc4nn[nH]n4)cc3)c2=O)=N1 (stereo not shown) [33S0 (115), isopropyl (Z)-2-(4-((2H-tetrazol-5-yl)methoxy)benzylidene)-5-(4-chlorophenyl)-7-methyl-3-oxo-2,3-dihydro-5H-thiazolo[3,2-a]pyrimidine-6-carboxylate]		> 50
> 100	CCOC(=O)C1=C(C)N=c2s/c(=C\c3ccc(OCC(=O)OC)cc3)c(=O)n2C1c1ccc(Cl)cc1 (stereo not shown) [35S0 (110), ethyl (Z)-5-(4-chlorophenyl)-2-(4-(2-methoxy-2-oxoethoxy)benzylidene)-7-methyl-3-oxo-2,3-dihydro-5H-thiazolo[3,2-a]pyrimidine-6-carboxylate]		20 to 50
> 100	C#CCOc1ccc(/C=c2\sc3n(c2=O)C(c2ccc(Cl)cc2)C(C(=O)OC(C)C)=C(C)N=3)cc1 (stereo not shown) [36S0 (116), isopropyl (Z)-5-(4-chlorophenyl)-7-methyl-3-oxo-2-(4-(prop-2-yn-1-yloxy)benzylidene)-2,3-dihydro-5H-thiazolo[3,2-a]pyrimidine-6-carboxylate]		> 50

SMILES	EC50 (KIF2C) [µM]	Cell validation (IC50) (MDA-MB-231 cells)	IC50 (MDA-MB-231 cells) [µM]
COC(=O)C1=C(C)N=c2s/c(=C\c3ccc(OCC(=O)N4CCN(C)CC4)cc3)c(=O)n2C1c1ccc(Cl)cc1 (stereo not shown) [26S0 (93)]	50 to 100	+ +	
CC1=C(C(=O)CC(C)C)C(c2ccc(Cl)cc2)n2c(s/c(=C\c3ccc(OCC(=O)N4CCN(C)CC4)cc3)c2=O)=N1 (stereo not shown) [27S0 (98), (Z)-5-(4-chlorophenyl)-7-methyl-6-(3-methylbutanoyl)-2-(4-(2-(4-methylpiperazin-1-yl)-2-oxoethoxy)benzylidene)-5H-thiazolo[3,2-a]pyrimidin-3(2H)-one]	50 to 100	+ +	
C=CCOC(=O)C1=C(C)N=c2s/c(=C\c3ccc(OCC(=O)N4CCN(C)CC4)cc3)c(=O)n2C1c1ccc(Cl)cc1 (stereo not shown) [30S0 (96), allyl (Z)-5-(4-chlorophenyl)-7-methyl-2-(4-(2-(4-methylpiperazin-1-yl)-2-oxoethoxy)benzylidene)-3-oxo-2,3-dihydro-5H-thiazolo[3,2-a]pyrimidine-6-carboxylate]	> 100	+ +	
CC1=C(C(=O)OC(C)C)C(c2ccc(F)cc2)n2c(s/c(=C\c3ccc(OCC(=O)N4CCN(C)CC4)cc3)c2=O)=N1 (stereo not shown) [32S0 (36), isopropyl (Z)-5-(4-fluorophenyl)-7-methyl-2-(4-(2-(4-methylpiperazin-1-yl)-2-oxoethoxy)benzylidene)-3-oxo-2,3-dihydro-5H-thiazolo[3,2-a]pyrimidine-6-carboxylate]	> 100	+ +	
CC1=C(C(=O)OC(C)C)C(c2ccc(Cl)cc2)n2c(s/c(=C\c3ccc4c(c3)OCO4)c2=O)=N1 (stereo not shown) [34S0 (24), isopropyl (Z)-2-(benzo[d][1,3]dioxol-5-ylmethylene)-5-(4-chlorophenyl)-7-methyl-3-oxo-2,3-dihydro-5H-thiazolo[3,2-a]pyrimidine-6-carboxylate]	> 100		> 50
